Key:
male rats = experiment: Plasma metabolite profiling (GC-MS/LC-MS), markers for liver enzyme induction in male rats, 28-day gavage study; type: in vivo, rat; conditions: high dose
Procedure: (§1) A group of each 5 male and female rats was dosed once daily with the indicated compounds (see tables below) at 10 and 100 mg/kg body weight per gavage over 28 days. Additional groups of each 5 male and female animals served as controls. Before starting the treatment period, animals, which were 62-64 days old when supplied, were acclimatized to the housing and environmental conditions for 7 days. All animals of the animal population were kept under the same constant temperature (20-24±3° C.) and the same constant humidity (30-70%). Each animal of the animal population was kept in a separate cage. The animals of the animal population are fed ad libitum. The food to be used was be essentially free of chemical or microbial contaminants. Drinking water was also offered ad libitum. Accordingly, the water was be free of chemical and microbial contaminants as laid down in the European Drinking Water Directive 98/83/EG. The illumination period was 12 hours light followed by 12 hours darkness (12 hours light, from 6:00 to 18:00, and 12 hours darkness, from 18:00 to 6:00).
(§2) In the morning of day 7, 14, and 28, blood was taken from the retroorbital venous plexus from fasted anaesthetized animals. From each animal, 1 ml of blood was collected with EDTA as anticoagulant. The samples were be centrifuged for generation of plasma. All plasma samples were covered with a N2 atmosphere and then stored at—80° C. until analysis.
(§3) For mass spectrometry-based metabolite profiling analyses plasma samples were extracted and a polar and a non-polar fraction was obtained. For GC-MS analysis, the non-polar fraction was treated with methanol under acidic conditions to yield the fatty acid methyl esters. Both fractions were further derivatised with O-methyl-hydroxyamine hydrochloride and pyridine to convert oxo-groups to O-methyloximes and subsequently with a silylating agent before analysis. In LC-MS analysis, both fractions were reconstituted in appropriate solvent mixtures. HPLC was performed by gradient elution on reversed phase separation columns. For mass spectrometric detection metanomics proprietary technology was applied which allows target and high sensitivity MRM (Multiple Reaction Monitoring) profiling in parallel to a full screen analysis.
(§4) Following comprehensive analytical validation steps, the data for each analyte were normalized against data from pool samples. These samples were run in parallel through the whole process to account for process variability. The significance of treatment group values specific for sex, dose group and metabolite was determined by comparing means of the treated groups to the means of the respective untreated control groups using Student's t-test. Normalized treatment group values and their significance were fed into a database for further statistics and data mining processes.
(§5) The changes of the group of plasma metabolites being indicative for liver enzyme induction after treatment of the rats are shown in the following tables: […]

female rats = experiment: Plasma metabolite profiling (GC-MS/LC-MS), markers for liver enzyme induction in female rats, 28-day gavage study; type: in vivo, rat; conditions: high dose
Procedure: as §1, §2, §3, §4, §5

## Clc1cc(Cl)c(Cl)c(Cl)c1Cl [Pentachlorobenzene]
Male rats; day 7, relative to controls
  1,2-Dioleoyl-sn-glycero-3-phosphatidyl-L-serine, change of plasma metabolite, mh7: 1.27
  Behenic acid (C22:0), change of plasma metabolite, mh7: 1.43
  Cholesterol, change of plasma metabolite, mh7: 1.31
  Eicosapentanoic acid, change of plasma metabolite, mh7: 1.4
  Galactose, lipid fraction, change of plasma metabolite, mh7: 1.37
  Lignoceric acid (C24:0), change of plasma metabolite, mh7: 1.32
  Nervonic acid (C24:1), change of plasma metabolite, mh7: 1.30
  Phosphatidylcholine (C18:0/C18:2), change of plasma metabolite, mh7: 1.01
  Phosphatidylcholine (C18:0/C22:6), change of plasma metabolite, mh7: 1.12
  Sphingolipids (3- and 5-Methoxysphingosine), change of plasma metabolite, mh7: 1.42
  Stearic acid (C18:0), change of plasma metabolite, mh7: 1.34
  Threonic acid, change of plasma metabolite, mh7: 3.06
Male rats; day 14, relative to controls
  1,2-Dioleoyl-sn-glycero-3-phosphatidyl-L-serine, change of plasma metabolite, mh14: 1.35
  Behenic acid (C22:0), change of plasma metabolite, mh14: 1.26
  Cholesterol, change of plasma metabolite, mh14: 1.46
  Eicosapentanoic acid, change of plasma metabolite, mh14: 1.4
  Galactose, lipid fraction, change of plasma metabolite, mh14: 1.37
  Lignoceric acid (C24:0), change of plasma metabolite, mh14: 1.16
  Nervonic acid (C24:1), change of plasma metabolite, mh14: 1.78
  Phosphatidylcholine (C18:0/C18:2), change of plasma metabolite, mh14: 1.11
  Phosphatidylcholine (C18:0/C22:6), change of plasma metabolite, mh14: 1.15
  Sphingolipids (3- and 5-Methoxysphingosine), change of plasma metabolite, mh14: 1.79
  Stearic acid (C18:0), change of plasma metabolite, mh14: 1.25
  Threonic acid, change of plasma metabolite, mh14: 2.98
Male rats; day 28, relative to controls
  1,2-Dioleoyl-sn-glycero-3-phosphatidyl-L-serine, change of plasma metabolite, mh28: 1.27
  Behenic acid (C22:0), change of plasma metabolite, mh28: 1.34
  Cholesterol, change of plasma metabolite, mh28: 1.04
  Eicosapentanoic acid, change of plasma metabolite, mh28: 1.4
  Galactose, lipid fraction, change of plasma metabolite, mh28: 1.51
  Lignoceric acid (C24:0), change of plasma metabolite, mh28: 1.21
  Nervonic acid (C24:1), change of plasma metabolite, mh28: 1.17
  Phosphatidylcholine (C18:0/C18:2), change of plasma metabolite, mh28: 1.10
  Phosphatidylcholine (C18:0/C22:6), change of plasma metabolite, mh28: 1.06
  Sphingolipids (3- and 5-Methoxysphingosine), change of plasma metabolite, mh28: 1.46
  Stearic acid (C18:0), change of plasma metabolite, mh28: 1.05
  Threonic acid, change of plasma metabolite, mh28: 3.48
Female rats; day 7, relative to controls
  1,2-Dioleoyl-sn-glycero-3-phosphatidyl-L-serine, change of plasma metabolite, fh7: 1.28
  Arachidonic acid (C20:cis-[5,8,11,14]4), change of plasma metabolite, fh7: 1.27
  Behenic acid (C22:0), change of plasma metabolite, fh7: 1.30
  Cholesterol, change of plasma metabolite, fh7: 1.23
  Docosahexaenoic acid (C22:cis[4,7,10,13,16,19]6), change of plasma metabolite, fh7: 1.79
  Dodecanol, change of plasma metabolite, fh7: 1.17
  Eicosanoic acid (C20:0), change of plasma metabolite, fh7: 1.13
  Galactose, lipid fraction, change of plasma metabolite, fh7: 1.10
  Glycerol, lipid fraction, change of plasma metabolite, fh7: 2.38
  Glycerolphosphate, lipid fraction, change of plasma metabolite, fh7: 1.27
  Heptadecanoic acid (C17:0), change of plasma metabolite, fh7: 1.32
  Lignoceric acid (C24:0), change of plasma metabolite, fh7: 1.39
  Linoleic acid (C18:cis[9,12]2), change of plasma metabolite, fh7: 2.11
  Nervonic acid (C24:1), change of plasma metabolite, fh7: 0.97
  Palmitic acid (C16:0), change of plasma metabolite, fh7: 1.59
  Phosphatidylcholine (C18:0/C18:2), change of plasma metabolite, fh7: 1.14
  Sphingolipids (3- and 5-Methoxysphingosine), change of plasma metabolite, fh7: 1.43
  Stearic acid (C18:0), change of plasma metabolite, fh7: 1.30
  Threonic acid, change of plasma metabolite, fh7: 3.67
  Tricosanoic acid (C23:0), change of plasma metabolite, fh7: 1.18
  gamma-Linolenic acid (C18:cis[6,9,12]3), change of plasma metabolite, fh7: 1.71
  myo-Inositol-2-monophosphate, lipid fraction, change of plasma metabolite, fh7: 1.81
Female rats; day 14, relative to controls
  1,2-Dioleoyl-sn-glycero-3-phosphatidyl-L-serine, change of plasma metabolite, fh14: 1.72
  Arachidonic acid (C20:cis-[5,8,11,14]4), change of plasma metabolite, fh14: 1.89
  Behenic acid (C22:0), change of plasma metabolite, fh14: 1.60
  Cholesterol, change of plasma metabolite, fh14: 1.64
  Docosahexaenoic acid (C22:cis[4,7,10,13,16,19]6), change of plasma metabolite, fh14: 2.49
  Dodecanol, change of plasma metabolite, fh14: 1.79
  Eicosanoic acid (C20:0), change of plasma metabolite, fh14: 2.76
  Galactose, lipid fraction, change of plasma metabolite, fh14: 1.28
  Glycerol, lipid fraction, change of plasma metabolite, fh14: 7.37
  Glycerolphosphate, lipid fraction, change of plasma metabolite, fh14: 1.52
  Heptadecanoic acid (C17:0), change of plasma metabolite, fh14: 1.89
  Lignoceric acid (C24:0), change of plasma metabolite, fh14: 1.60
  Linoleic acid (C18:cis[9,12]2), change of plasma metabolite, fh14: 5.23
  Nervonic acid (C24:1), change of plasma metabolite, fh14: 1.55
  Palmitic acid (C16:0), change of plasma metabolite, fh14: 3.46
  Phosphatidylcholine (C18:0/C18:2), change of plasma metabolite, fh14: 1.20
  Sphingolipids (3- and 5-Methoxysphingosine), change of plasma metabolite, fh14: 1.77
  Stearic acid (C18:0), change of plasma metabolite, fh14: 1.87
  Threonic acid, change of plasma metabolite, fh14: 3.63
  Tricosanoic acid (C23:0), change of plasma metabolite, fh14: 1.46
  gamma-Linolenic acid (C18:cis[6,9,12]3), change of plasma metabolite, fh14: 4.53
  myo-Inositol-2-monophosphate, lipid fraction, change of plasma metabolite, fh14: 3.61
Female rats; day 28, relative to controls
  1,2-Dioleoyl-sn-glycero-3-phosphatidyl-L-serine, change of plasma metabolite, fh28: 1.51
  Arachidonic acid (C20:cis-[5,8,11,14]4), change of plasma metabolite, fh28: 1.50
  Behenic acid (C22:0), change of plasma metabolite, fh28: 1.41
  Cholesterol, change of plasma metabolite, fh28: 1.62
  Docosahexaenoic acid (C22:cis[4,7,10,13,16,19]6), change of plasma metabolite, fh28: 1.57
  Dodecanol, change of plasma metabolite, fh28: 1.40
  Eicosanoic acid (C20:0), change of plasma metabolite, fh28: 1.98
  Galactose, lipid fraction, change of plasma metabolite, fh28: 1.40
  Glycerol, lipid fraction, change of plasma metabolite, fh28: 2.68
  Glycerolphosphate, lipid fraction, change of plasma metabolite, fh28: 1.43
  Heptadecanoic acid (C17:0), change of plasma metabolite, fh28: 1.54
  Lignoceric acid (C24:0), change of plasma metabolite, fh28: 1.75
  Linoleic acid (C18:cis[9,12]2), change of plasma metabolite, fh28: 2.69
  Nervonic acid (C24:1), change of plasma metabolite, fh28: 1.46
  Palmitic acid (C16:0), change of plasma metabolite, fh28: 1.86
  Phosphatidylcholine (C18:0/C18:2), change of plasma metabolite, fh28: 1.23
  Sphingolipids (3- and 5-Methoxysphingosine), change of plasma metabolite, fh28: 1.73
  Stearic acid (C18:0), change of plasma metabolite, fh28: 1.65
  Threonic acid, change of plasma metabolite, fh28: 4.57
  Tricosanoic acid (C23:0), change of plasma metabolite, fh28: 1.45
  gamma-Linolenic acid (C18:cis[6,9,12]3), change of plasma metabolite, fh28: 2.98
  myo-Inositol-2-monophosphate, lipid fraction, change of plasma metabolite, fh28: 1.93
